Reference: article PMC10833137, “Characterization of a novel 4-guanidinobutyrase from Candida parapsilosis” (FEMS Yeast Research, 2024)
Where two headings read alike, the source gives them in different places.

What was measured:
[1] = biological target: T1, CpGBase (C. parapsilosis 4-guanidinobutyrase; CparGBase) (Lodderomyces parapsilosis, UniProt G8B5B7); experiment: modified Archibald urea assay, product inhibition, Cheng-Prusoff; format: biochemical
T1 construct: gene CPAR2_602270
T1 sequence (G8B5B7 16-367 limits assumed): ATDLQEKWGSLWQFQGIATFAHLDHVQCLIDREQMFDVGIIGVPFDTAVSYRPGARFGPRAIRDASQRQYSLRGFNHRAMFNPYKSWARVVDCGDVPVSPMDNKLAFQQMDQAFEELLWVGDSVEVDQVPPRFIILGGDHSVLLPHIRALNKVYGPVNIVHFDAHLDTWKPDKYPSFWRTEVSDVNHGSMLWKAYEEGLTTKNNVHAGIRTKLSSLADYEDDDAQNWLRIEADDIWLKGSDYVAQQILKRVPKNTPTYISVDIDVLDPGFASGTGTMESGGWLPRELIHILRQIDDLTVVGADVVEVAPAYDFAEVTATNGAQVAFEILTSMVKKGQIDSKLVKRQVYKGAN
Excerpt: modified Archibald urea assay, product inhibition, Cheng-Prusoff on CpGBase (C. parapsilosis 4-guanidinobutyrase; CparGBase)

AnGBase (A. niger GBase) = biological target: T2, AnGBase (A. niger GBase) (Aspergillus niger, UniProt W8R465); experiment: product inhibition, Cheng-Prusoff; format: biochemical
T2 sequence (W8R465 21-422 limits assumed): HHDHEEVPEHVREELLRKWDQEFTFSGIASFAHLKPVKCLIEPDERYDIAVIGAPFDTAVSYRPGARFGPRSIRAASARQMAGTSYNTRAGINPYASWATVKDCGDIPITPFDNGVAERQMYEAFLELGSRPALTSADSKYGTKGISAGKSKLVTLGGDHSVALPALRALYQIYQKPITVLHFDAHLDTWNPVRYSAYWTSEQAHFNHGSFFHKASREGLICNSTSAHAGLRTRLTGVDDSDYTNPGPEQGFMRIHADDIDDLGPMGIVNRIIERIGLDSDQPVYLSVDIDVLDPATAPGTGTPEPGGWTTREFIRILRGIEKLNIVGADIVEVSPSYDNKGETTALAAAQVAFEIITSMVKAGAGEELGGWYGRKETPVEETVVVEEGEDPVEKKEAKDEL
Excerpt: product inhibition, Cheng-Prusoff on AnGBase (A. niger GBase)

purified protein [2] = substrate: N=C(N)NCCCC(=O)O; experiment: purified protein; format: biochemical, Lodderomyces parapsilosis; conditions: 20 mM phosphate buffer, 37 °C, 20 min, enriched enzyme
purified protein [3] = substrate: N=C(N)NCCC(=O)O; experiment: purified protein; format: biochemical, Lodderomyces parapsilosis; conditions: 20 mM phosphate buffer, 37 °C, 20 min, enriched enzyme

Molecule: NCCCC(=O)O [GABA]
- Ki ([1]; read-out: KI / GABA): 3.1 ± 0.5 mM
- Ki (AnGBase (A. niger GBase); read-out: KI / GABA): 4.1 ± 1.1 mM

Molecule: NCCC(=O)O [β-alanine]
- Ki ([1]; read-out: KI / β-alanine): 7.8 ± 1.2 mM
- Ki (AnGBase (A. niger GBase); read-out: KI / β-alanine): 48.7 ± 0.8 mM

B1: CpGBase (C. parapsilosis 4-guanidinobutyrase; CparGBase) (Lodderomyces parapsilosis CDC317) (protein)
chain: T1 sequence (G8B5B7 16-367 limits assumed)
- Km (purified protein [2]): 4.6 ± 0.5 mM
- Km (purified protein [3]): 9.6 ± 0.4 mM
